Assay results published in patent US6159994A, “Histamine H3 receptor ligands” (James Black Foundation, priority 1997, dated 2000).

Columns and labels:
histamine H3 receptor = target: T1, histamine H3 receptor (Cavia porcellus, UniProt Q9JI35); experiment: Guinea pig ileal longitudinal muscle, myenteric plexus functional assay (antagonism of R-(α)-methylhistamine inhibition of electrically-stimulated contraction); format: cell-based; conditions: guinea pig ileum; antagonist affinity from rightward shift of R-(α)-methylhistamine E/[A] curves (Schild); typical variance ±0.15 log units; read-out: pKB (functional assay) - ileum (converted)
T1 construct: the longitudinal muscle layer and adhering myenteric plexus was teased away; from tissue; host or cells: guinea pig ileum longitudinal muscle with adhering myenteric plexus (intact tissue strips)
Method: The biological activity of the compounds of the examples was measured using the ileal longitudinal muscle, myenteric plexus assay described by Paton and Aboo Zar (J. Physiol. 1968, 194, 13-33). Male Dunkin-Hartley guinea pigs (250-300 g) were employed. Briefly, a 50 cm portion of ileum proximal to the caecum was removed, after discarding the terminal 20 cm. Ileal segments (3 cm) were cleaned by passing Krebs-Henseleit buffer containing 3 μM mepyramine gently through the ileum using a Pasteur pipette (size: 13.8 cm length, 0.65 cm diameter). To avoid unnecessary damage to the tissue, Krebs-Henseleit buffer was passed through the ileal segment, while it was lying horizontally on a petri dish. Therefore, the ileum was not over-distended and the buffer flowed through with ease. Each segment was then passed over a Pasteur pipette and the longitudinal muscle layer and adhering myenteric plexus was teased away using moist cotton wool, by stroking tangentially away from the mesenteric attachment. The tissues were suspended in 20 ml organ baths containing Krebs-Henseleit buffer at 37±1° C. and gassed with […]. The tissues were ligated to two parallel stainless steel wires, situated between two platinum electrodes (0.76 cm length, 0.06 cm diameter). All measurements were recorded isometrically (Grass FTO3 transducer). Following an initial loading tension of 1 g, the tissues were stimulated with electrical pulses at a frequency of 0.1 lHz and a pulse duration of 0.5 msec, as described by Kosterlitz & Watt (Br. J. Pharmacol. 1968, 266-276). Initially, the tissues were stimulated at supramaximal (1.3 fold times maximal) voltage for a period of 30 min and then the tissues were washed and re-stimulated.A "sighter dose" of the selective histamine H3 -receptor agonist, R-(α)-methylhistamine (0.3 μM) (Arrang el al. Nature, 1987, 117-123), was administered. Upon generation of response, the "sighter dose" was removed from the tissues by "washout" (6 washes over 60 min) and during this period the electrical stimulation was switched off. The tissues were then re-stimulated and allowed to stabilise prior to the addition of drug treatments, which were allocated on a randomised block basis to the organ baths. Following the incubation period, a single cumulative E/[A] curve was obtained. The experimental E/[A] curve data was expressed as the percentage inhibition of the peak height of electrically-stimulated contraction. Antagonist affinity values were calculated from the degree of rightward shift of the R-(α)-methylhistamine E/[A] curves using Schild's methods (Arunlakshana & Schild Br. J. Pharmacol, 1959, 48-58). Typical variance in this assay is ±0.15 log units.

[1] = target: T2, Histamine H3 receptor (guinea pig ileum longitudinal muscle myenteric plexus membranes) (Cavia porcellus, UniProt Q9JI35); experiment: Histamine H3 radioligand binding assay - guinea pig ileum; conditions: [3H]-R-α-methylhistamine (50 μl; 3 nM), 165 min, 21±3° C., pH7.4, typical variance ±0.12 log units, read-out: pKI (binding assay) - ileum (converted)
T2 construct: Guinea pig ileum longitudinal muscle myenteric plexus membranes; from tissue; host or cells: guinea pig ileum longitudinal muscle myenteric plexus membranes
Method: Histamine H3 radioligand binding assay--guinea pig ileum
Male Dunkin Hartley guinea pigs (200-300 g) were used. The small intestine was rapidly removed (cut ^- 5 cm from caecum and 5 cm from stomach) and placed in ice-cold 20 mM Hepes-NaOH buffer (pH7.4 at 21±3° C.). The tissue was cut into ^- 10 cm segments, flushed through with ice-cold 20 mM Hepes-NaOH buffer and placed in a beaker containing fresh buffer at 4° C. 10 cm segments of ileum were threaded onto a glass pipette and the longitudinal muscle myenteric plexus was peeled away from the circular muscle using damp cotton-wool. Longitudinal muscle myenteric plexus was immediately placed in ice-cold Viaspan® solution (^~ 100 ml for tissue from 3 guinea pigs) and placed in the refrigerator for 24 hours.
Pre-soaked tissue was weighed and minced with scissors. The tissue was then homogenised in Viaspan® using a polytron (Kinematica AG; PT-DA 3020/2TS, 3×^- 1-2s). 50 ml of 500 mM Tris HCl (pH6.9 at 21±3° C.) was added to the tissue and the mixture centrifuged at 39,800×g for 12 min at 4° C. The supernatant was discarded and rehomogenised in 100 ml ice-cold 20 mM Hepes-NaOH buffer (pH7.4 at 21±3° C.) using a teflon-in-glass homogeniser (setting 10; 3×). The homogenate was recentrifuged at 39,800×g and the pellet resuspended in 20 mM Hepes-NaOH buffer (pH7.4 at 21±3° C.), to a tissue concentration of 50 mg.ml^-1, using a polytron (Brinkman, PT10, 3×^~1 s).
Guinea pig ileum longitudinal muscle myenteric plexus membranes (400 μl) were incubated for 165 min at 21±3° C. in a final volume of 500 μl with 20 mM Hepes-NaOH buffer containing [^3 H]-R-α-methylhistamine (50 μl; 3 nM) and competing compound. Total and non-specific binding of [^3 H]-R-α-methylhistamine were defined using 50 μl of buffer and 50 μl of 10 μM thioperamide, respectively. The assay was terminated by rapid filtration through Whatman GF/B filters, presoaked (2 hr) in 0.1% polyethyleneimine, using a Brandell Cell Harvester. The filters were washed (3×3 ml) with ice-cold 50 mM Tris-HCl (pH6.9 at 21±3° C.), transferred into scintillation vials, 5 ml liquid scintillation cocktail was added and after 4 hours the bound radioactivity was determined by counting (4 min) in a Beckman liquid scintillation counter.
(§1) Data are analysed using GraphPad prism and the general equation for a competition curve with variable Hill slope (nH). [formula] where
(§2) X is the log concentration of competing compound,
(§3) Y is the binding obtained at each concentration of X,
(§4) pIC50 is the […] required to compete for half of the specific binding.
The IC50 is converted to the KI using the Cheng Prusoff equation, […]
KD is the equilibrium dissociation constant for the radioligand determined by saturation experiments. […]

[2] = target: T3, Histamine H3 receptor (guinea pig cortex membranes) (Cavia porcellus, UniProt Q9JI35); experiment: Histamine H3 radioligand binding assay - guinea pig cortex; conditions: [3H]-R-α-methylhistamine 0.1 nM final, typical variance ±0.12 log units, read-out: pKI (binding assay) - cortex (converted)
T3 construct: The cortex was dissected, weighed and homogenised; from tissue; host or cells: guinea pig cerebral cortex membranes
Method: as §1, §2, §3, §4
The IC50 is converted to the KI using the Cheng Prusoff equation,
IC50 is the concentration of competitor required to compete for half the specific binding,
L is the radioligand concentration used,
KD is the equilibrium dissociation constant for the radioligand determined by saturation experiments.
Histamine H3 radioligand binding assay--guinea pig cortex
Male Dunkin Hartley guinea pigs (200-300 g) were used. The whole brain was removed and immediately placed in ice-cold 20 mM Hepes-NaOH buffer (pH7.4 at 21±3° C.). The cortex was dissected, weighed and homogenised in ice-cold 20 mM Hepes-NaOH buffer (pH7.4 at 21±3° C.) (50 ml/guinea-pig cortex) using a polytron (Kinematica AG; PT-DA 3020/2TS, 3×3s). The homogenate was centrifuged at 100×g for 5 min and the supernatants pooled and stored at 4° C. The pellets were rehomogenised in fresh ice-cold buffer (80 ml) and recentrifuged (100×g for 5 min). The supernatants were pooled and pellets rehomogenised and recentrifuged (100×g for 5 min). All supernatants were pooled and centrifuged at 39,800×g for 12 min at 4° C. The final pellet was resuspended in 20 mM Hepes-NaOH buffer (pH7.4 at 21±3° C.) to a tissue concentration of 7.5 mg.ml^-1, using a teflon-in-glass homogeniser.
These were essentially identical to those used for the guinea pig ileum myenteric plexus assay described above, except that the final assay concentration of [^3 H]-R-α-methylhistamine was 0.1 nM. Typical variance in this assay is ±0.12 log units.

T2 sequence (Q9JI35 whole entry): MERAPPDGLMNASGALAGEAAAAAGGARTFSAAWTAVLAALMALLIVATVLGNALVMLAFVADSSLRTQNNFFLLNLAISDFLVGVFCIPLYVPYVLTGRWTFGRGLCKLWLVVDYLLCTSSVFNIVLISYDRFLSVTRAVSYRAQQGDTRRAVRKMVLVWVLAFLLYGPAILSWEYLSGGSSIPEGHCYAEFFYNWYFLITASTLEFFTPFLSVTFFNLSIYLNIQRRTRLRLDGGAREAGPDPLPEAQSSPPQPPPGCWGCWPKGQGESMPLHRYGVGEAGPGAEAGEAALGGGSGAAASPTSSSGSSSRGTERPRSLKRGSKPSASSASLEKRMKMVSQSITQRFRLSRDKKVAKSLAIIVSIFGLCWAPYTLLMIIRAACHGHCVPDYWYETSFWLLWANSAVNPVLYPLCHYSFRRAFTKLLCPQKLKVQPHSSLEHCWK
T1 sequence (Q9JI35 whole entry): as above
T3 sequence (Q9JI35 whole entry): as above

Row | Kb (histamine H3 receptor) [nM] | Ki [1] [nM] | Ki [2] [nM] | Structure (SMILES)
1 | 123 | 42.7 | 46.8 | O=S1(=O)NC(Cc2ccc(Cl)cc2)CN1CCCCCc1c[nH]cn1 (centres unmarked) [Example 1, 4-(4-chlorophenyl)methyl-2-(5-(4-imidazolyl)pentyl)-1,2,5-thiadiazolidine-1,1-dioxide]
2 | 240 |  | 4170 | O=S1(=O)NCCN1CCc1c[nH]cn1 [Example 2, 2-(2-(4-imidazolyl)ethyl)-1,2,5-thiadiazolidine-1,1-dioxide]
3 | 355 | 13.5 | 2.57 | O=S1(=O)NCCN1CCCc1c[nH]cn1 [Example 3, 2-(3-(4-imidazolyl)propyl)-1,2,5-thiadiazolidine-1,1-dioxide]
4 | 1780 |  | 115 | O=C1CNS(=O)(=O)N1CCCc1c[nH]cn1 [Example 4, 2-(3-(4-imidazolyl)propyl)-1,2,5-thiadiazolidin-3-one-1,1-dioxide]
5 | > 10000 | 2950 | 6310 | O=S1(=O)N(CCCc2c[nH]cn2)CCN1Cc1ccccc1 [Example 5, 5-benzyl-2-(3-(4-imidazolyl)propyl)-1,2,5-thiadiazolidine-1,1-dioxide]
6 | 891 | 1660 | 43.7 | C[C@H]1CN(CCc2c[nH]cn2)[S+]([O-])N1 (stereo partly drawn) [Example 6, 2-(4-imidazolyl)ethyl-4(S)-methyl-1,2,5-thiadiazolidine-1-oxide]
7 | 44.7 |  | 0.513 | O=C1C(Cc2ccc(Cl)cc2)NS(=O)(=O)N1CCCCc1c[nH]cn1 (centres unmarked) [Example 7, 2-(4-(4-imidazolyl)butyl)-4-(4-chlorophenyl)methyl-1,2,5-thiadiazolidin-3-one-1,1-dioxide]
8 | 2400 |  | 501 | O=C1CNS(=O)(=O)N1CCCCc1c[nH]cn1 [Example 8, 2-(4-(4-imidazolyl)butyl)-1,2,5-thiadiazolidin-3-one-1,1-dioxide]
